From patent publication USRE39591E1, “6-O-substituted ketolides having antibacterial activity” (Abbott Laboratories, priority 1996, dated 2007)
In brackets after ≈: the same amount, converted by molar mass.

Tested on: up to 32 different microorganisms
Assay: in vitro antibacterial activity (MIC), agar dilution on Brain Heart Infusion (BHI) agar with Steers replicator
Format: cell-based
Settings: unit assumed
Outline: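 Agar dilution, 12 plates/compound; inoc 1:100 (1:10 Micrococcus, Streptococcus); 35°-37° C, 20–24 h. Erythromycin A reference plate plus drug-free growth controls at start and end. Endpoint = no growth/slight haze/sparse colonies.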

SMILES	MIC (organism code AA) [mg/L]	MIC (organism code BB) [mg/L]	MIC (organism code CC) [mg/L]	MIC (organism code DD) [mg/L]	MIC (organism code EE) [mg/L]	MIC (organism code FF) [mg/L]	MIC (organism code GG) [mg/L]	MIC (organism code HH) [mg/L]	MIC (organism code II) [mg/L]	MIC (organism code JJ) [mg/L]	MIC (organism code KK) [mg/L]	MIC (organism code LL) [mg/L]	MIC (organism code MM) [mg/L]	MIC (organism code NN) [mg/L]	MIC (organism code OO) [mg/L]	MIC (organism code PP) [mg/L]	MIC (organism code QQ) [mg/L]	MIC (organism code RR) [mg/L]	MIC (organism code SS) [mg/L]	MIC (organism code TT) [mg/L]	further results
CC[C@H]1OC(=O)[C@H](C)C(=O)[C@H](C)[C@@H](O[C@@H]2O[C@H](C)C[C@H](N(C)C)[C@H]2O)[C@@](C)(OCC=O)C[C@@H](C)C(=O)[C@H](C)[C@H]2NC(=O)O[C@@]21C [Example 220, Compound of Formula (IX): L is CO, T is NH, R is —CH2C(O)H]	0.2	0.39	> 100	0.2	0.2	0.2	> 100	0.2	0.05	≤ 0.005	0.02	0.01	> 100	0.39	0.02	0.2	12.5	0.1	12.5	> 100	MIC (organism code UU): 3.1 mg/L; MIC (organism code VV): 0.2 mg/L; MIC (organism code WW): 2 mg/L; MIC (organism code XX): 0.03 mg/L; MIC (organism code YY): 0.06 mg/L; MIC (organism code ZZ): > 128 mg/L; MIC (organism code ZZA): 2 mg/L
CC[C@H]1OC(=O)[C@H](C)C(=O)[C@H](C)[C@@H](O[C@@H]2O[C@H](C)C[C@H](N(C)C)[C@H]2O)[C@@](C)(OCCNCCc2ccccc2)C[C@@H](C)C(=O)[C@H](C)[C@H]2NC(=O)O[C@@]21C [Example 222, Compound of Formula (IX): L is CO, T is NH, R is —CH2CH2NHCH2CH2Phenyl]	0.2	0.1	> 100	0.39	0.2	0.2	> 100	0.2	0.02	≤ 0.005	0.02	≤ 0.005	> 100	0.39	0.01	0.2	25	0.1	25	> 100	MIC (organism code UU): 0.78 mg/L; MIC (organism code VV): 0.2 mg/L; MIC (organism code WW): 4 mg/L; MIC (organism code XX): 0.03 mg/L; MIC (organism code YY): 0.06 mg/L; MIC (organism code ZZ): > 128 mg/L; MIC (organism code ZZA): 2 mg/L
CC[C@H]1OC(=O)[C@H](C)C(=O)[C@H](C)[C@@H](O[C@@H]2O[C@H](C)C[C@H](N(C)C)[C@H]2O)[C@@](C)(OCCNCCCc2ccccc2)C[C@@H](C)C(=O)[C@H](C)[C@H]2NC(=O)O[C@@]21C [Example 223, Compound of Formula (IX): L is CO, T is NH, R is —CH2CH2NHCH2CH2CH2Phenyl]	0.2	0.1	> 100	0.2	0.2	0.2	> 100	0.39	0.05	≤ 0.005	≤ 0.005	≤ 0.005	> 100	0.1	0.05	0.2	50	0.2	100	> 100	MIC (organism code UU): 3.1 mg/L; MIC (organism code VV): 0.2 mg/L; MIC (organism code WW): 4 mg/L; MIC (organism code XX): 0.03 mg/L; MIC (organism code YY): 0.03 mg/L; MIC (organism code ZZ): > 128 mg/L; MIC (organism code ZZA): 0.5 mg/L
CC[C@H]1OC(=O)[C@H](C)C(=O)[C@H](C)[C@@H](O[C@@H]2O[C@H](C)C[C@H](N(C)C)[C@H]2O)[C@@](C)(OCCNCCCCc2ccccc2)C[C@@H](C)C(=O)[C@H](C)[C@H]2NC(=O)O[C@@]21C [Example 224]	0.39 (≈ 0.504 µM)	0.2 (≈ 0.258 µM)	> 100	0.2 (≈ 0.258 µM)	0.2 (≈ 0.258 µM)	0.2 (≈ 0.258 µM)	> 100	0.39 (≈ 0.504 µM)	0.01 (≈ 0.0129 µM)	0.01 (≈ 0.0129 µM)	≤ 0.005	0.01 (≈ 0.0129 µM)	> 100	0.2 (≈ 0.258 µM)	0.02 (≈ 0.0258 µM)	0.2 (≈ 0.258 µM)	25 (≈ 32.3 µM)	0.2 (≈ 0.258 µM)	25 (≈ 32.3 µM)	> 100	MIC (organism code UU): 3.1 mg/L (≈ 4.01 µM); MIC (organism code VV): 0.1 mg/L (≈ 0.129 µM); MIC (organism code WW): 4 mg/L (≈ 5.17 µM); MIC (organism code XX): 0.03 mg/L (≈ 0.0388 µM); MIC (organism code YY): 0.03 mg/L (≈ 0.0388 µM); MIC (organism code ZZ): > 128 mg/L; MIC (organism code ZZA): 2 mg/L (≈ 2.58 µM)
CC[C@H]1OC(=O)[C@H](C)C(=O)[C@H](C)[C@@H](O[C@@H]2O[C@H](C)C[C@H](N(C)C)[C@H]2O)[C@@](C)(OCCNCCCc2cnc3ccccc3c2)C[C@@H](C)C(=O)[C@H](C)[C@H]2NC(=O)O[C@@]21C [Example 225, Compound of Formula (IX): L is CO, T is NH, R is —CH2CH2NHCH2CH2CH2-(3-quinolyl)]	0.2	0.39	> 100	0.39	0.39	0.1	> 100	0.2	0.05	0.01	0.01	0.01	> 100	0.39	0.02	0.1	12.5	0.1	12.5	> 100	MIC (organism code UU): 3.1 mg/L; MIC (organism code VV): 0.2 mg/L; MIC (organism code WW): 4 mg/L; MIC (organism code XX): 0.03 mg/L; MIC (organism code YY): 0.06 mg/L; MIC (organism code ZZ): > 128 mg/L; MIC (organism code ZZA): 2 mg/L
